ChEMBL document CHEMBL5365427, “Discovery and Structural Optimization of Covalent ZAP-70 Kinase Inhibitors against Psoriasis” (J Med Chem, 2023)
Active and inactive are the calls of the source. The rule behind the calls is not given here.

Assays:
Splenocyte [1] = experiment: Immunosuppressive activity in BALB/c mouse Splenocyte assessed as reduction in frequency of CD25 positive CD4 positive T cells at 100 to 400 nM incubated for 48 hrs by flow cytometry analysis; assay type: functional, cell-based; conditions: dose 100-400 nM
Splenocyte [2] = experiment: Immunosuppressive activity in anti-CD3/CD28 stimulated BALB/c mouse Splenocyte assessed as reduction in IFN-gamma cytokine level incubated for 48 hrs by ELISA assay; assay type: functional, cell-based
[3] = target: Mitogen-activated protein kinase 10 (Homo sapiens) (UniProt P53779); experiment: Inhibition of JNK3 (unknown origin) at 1 uM relative to control
Chain of Mitogen-activated protein kinase 10 (Homo sapiens) (P53779 whole entry): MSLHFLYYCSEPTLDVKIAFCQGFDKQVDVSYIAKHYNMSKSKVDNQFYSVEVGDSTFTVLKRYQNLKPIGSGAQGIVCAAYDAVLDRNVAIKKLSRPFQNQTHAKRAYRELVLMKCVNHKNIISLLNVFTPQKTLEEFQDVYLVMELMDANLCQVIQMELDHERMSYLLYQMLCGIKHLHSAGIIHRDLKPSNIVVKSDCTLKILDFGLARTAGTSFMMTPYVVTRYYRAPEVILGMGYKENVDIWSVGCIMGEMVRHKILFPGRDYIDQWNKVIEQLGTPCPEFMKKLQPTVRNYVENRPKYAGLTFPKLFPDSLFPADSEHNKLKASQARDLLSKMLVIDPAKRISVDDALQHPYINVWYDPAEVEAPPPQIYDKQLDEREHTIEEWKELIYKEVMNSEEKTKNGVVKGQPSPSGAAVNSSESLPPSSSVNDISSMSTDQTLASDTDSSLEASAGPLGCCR

[4] = target: Mitogen-activated protein kinase 9 (Homo sapiens) (UniProt P45984); experiment: Inhibition of JNK2 (unknown origin) at 1 uM relative to control
Chain of Mitogen-activated protein kinase 9 (Homo sapiens) (P45984 whole entry, looked up): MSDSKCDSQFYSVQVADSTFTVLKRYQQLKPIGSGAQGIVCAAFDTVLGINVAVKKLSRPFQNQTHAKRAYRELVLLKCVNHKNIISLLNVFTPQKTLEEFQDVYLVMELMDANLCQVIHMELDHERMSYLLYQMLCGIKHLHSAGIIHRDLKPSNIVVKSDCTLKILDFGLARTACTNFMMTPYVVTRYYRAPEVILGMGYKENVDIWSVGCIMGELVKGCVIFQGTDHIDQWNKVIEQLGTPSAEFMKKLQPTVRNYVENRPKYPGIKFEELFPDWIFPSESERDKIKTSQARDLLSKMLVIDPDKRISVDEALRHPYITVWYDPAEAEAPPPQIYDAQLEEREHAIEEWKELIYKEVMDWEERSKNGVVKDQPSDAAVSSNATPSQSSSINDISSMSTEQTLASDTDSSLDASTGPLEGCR

Mus musculus [5] = experiment: Anti-inflammatory activity in imiquimod-induced BALB/c mouse psoriasis model assessed as reduction in immune cell infiltration at TOP administration, 2 % applied for 7 days by hematoxylin and eosin staining based assay; assay type: functional, organism-based; conditions: time 7.0 day
[6] = target: T1, Tyrosine-protein kinase SYK (Homo sapiens, UniProt P43405); experiment: Inhibition of SYK (unknown origin) using ULight-TK peptide as substrate incubated for 120 mins in presence of ATP by Lance Ultra Kinase assay
Mus musculus [7] = experiment: Anti-inflammatory activity in imiquimod-induced BALB/c mouse psoriasis model assessed as reduction in skin inflammation at TOP administration, 2 % applied for 7 days; assay type: functional, organism-based; conditions: time 7.0 day
Splenocyte [8] = experiment: Immunosuppressive activity in anti-CD3/CD28 stimulated BALB/c mouse Splenocyte assessed as reduction in IL-17A cytokine level incubated for 48 hrs by ELISA assay; assay type: functional, cell-based
[9] = target: T1, Tyrosine-protein kinase SYK; experiment: Inhibition of SYK (unknown origin) using ULight-TK peptide as substrate at 1 uM incubated for 120 mins in presence of ATP by Lance Ultra Kinase assay relative to control
Mus musculus [10] = experiment: Anti-inflammatory activity in imiquimod-induced BALB/c mouse psoriasis model assessed as decrease in splenomegaly at TOP administration, 2 % applied for 7 days; assay type: functional, organism-based; conditions: time 7.0 day
[11] = target: Mitogen-activated protein kinase 8 (Homo sapiens) (UniProt P45983); experiment: Inhibition of JNK1 (unknown origin) at 1 uM relative to control
Chain of Mitogen-activated protein kinase 8 (Homo sapiens) (P45983 whole entry): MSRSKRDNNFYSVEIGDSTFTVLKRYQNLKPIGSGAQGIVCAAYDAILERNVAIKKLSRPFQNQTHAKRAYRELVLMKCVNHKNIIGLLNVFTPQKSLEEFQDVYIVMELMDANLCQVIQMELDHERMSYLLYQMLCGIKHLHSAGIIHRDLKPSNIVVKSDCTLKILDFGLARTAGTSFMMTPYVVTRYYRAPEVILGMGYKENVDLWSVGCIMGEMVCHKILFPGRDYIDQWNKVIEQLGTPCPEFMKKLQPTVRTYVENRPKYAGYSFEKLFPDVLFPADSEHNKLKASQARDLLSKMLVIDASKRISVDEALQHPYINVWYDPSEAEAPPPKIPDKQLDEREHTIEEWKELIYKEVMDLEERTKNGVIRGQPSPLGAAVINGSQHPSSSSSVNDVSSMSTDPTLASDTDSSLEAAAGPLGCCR

Splenocyte [12] = experiment: Immunosuppressive activity in BALB/c mouse Splenocyte assessed as inhibition of concanavalin A induced T-cell proliferation incubated for 48 hrs by [3H]-thymidine incorporation based beta scintillation counter analysis; assay type: functional
[13] = target: T2, Tyrosine-protein kinase ZAP-70 (Homo sapiens) (UniProt P43403); experiment: Inhibition of ZAP-70 (unknown origin) at 1 uM relative to control
T2 sequence (whole entry): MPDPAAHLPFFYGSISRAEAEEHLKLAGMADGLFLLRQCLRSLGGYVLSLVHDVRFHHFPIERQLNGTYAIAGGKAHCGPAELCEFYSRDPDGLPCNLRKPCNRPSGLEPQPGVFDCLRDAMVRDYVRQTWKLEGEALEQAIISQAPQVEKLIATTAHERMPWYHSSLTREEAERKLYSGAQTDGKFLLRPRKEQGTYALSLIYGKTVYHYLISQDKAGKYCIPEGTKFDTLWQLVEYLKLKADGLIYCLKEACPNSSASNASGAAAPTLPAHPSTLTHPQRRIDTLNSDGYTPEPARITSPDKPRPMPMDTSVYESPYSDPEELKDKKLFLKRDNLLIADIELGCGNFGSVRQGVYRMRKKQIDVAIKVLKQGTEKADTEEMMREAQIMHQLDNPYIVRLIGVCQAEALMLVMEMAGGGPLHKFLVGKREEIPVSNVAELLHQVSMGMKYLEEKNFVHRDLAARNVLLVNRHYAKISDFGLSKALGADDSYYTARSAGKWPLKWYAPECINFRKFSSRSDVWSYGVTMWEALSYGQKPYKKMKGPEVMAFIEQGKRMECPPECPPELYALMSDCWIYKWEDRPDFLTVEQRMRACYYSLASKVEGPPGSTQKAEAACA

Splenocyte [14] = experiment: Immunosuppressive activity in BALB/c mouse Splenocyte assessed as reduction in frequency of CD69 positive CD4 positive T cells at 400 nM incubated for 48 hrs by flow cytometry analysis (reference value: 21.3%); assay type: functional; design: scale not given: the % may be the effect or the level left
Splenocyte [15] = experiment: Immunosuppressive activity in LPS-induced BALB/c mouse Splenocyte assessed as effect on CD69 expression at 100 to 400 nM incubated for 48 hrs by flow cytometry analysis; assay type: functional, cell-based; conditions: dose 100-400 nM
[16] = target: Tyrosine-protein kinase receptor UFO (Homo sapiens) (UniProt P30530); experiment: Inhibition of AXL (unknown origin) at 1 uM relative to control
Chain of Tyrosine-protein kinase receptor UFO (Homo sapiens) (P30530 whole entry): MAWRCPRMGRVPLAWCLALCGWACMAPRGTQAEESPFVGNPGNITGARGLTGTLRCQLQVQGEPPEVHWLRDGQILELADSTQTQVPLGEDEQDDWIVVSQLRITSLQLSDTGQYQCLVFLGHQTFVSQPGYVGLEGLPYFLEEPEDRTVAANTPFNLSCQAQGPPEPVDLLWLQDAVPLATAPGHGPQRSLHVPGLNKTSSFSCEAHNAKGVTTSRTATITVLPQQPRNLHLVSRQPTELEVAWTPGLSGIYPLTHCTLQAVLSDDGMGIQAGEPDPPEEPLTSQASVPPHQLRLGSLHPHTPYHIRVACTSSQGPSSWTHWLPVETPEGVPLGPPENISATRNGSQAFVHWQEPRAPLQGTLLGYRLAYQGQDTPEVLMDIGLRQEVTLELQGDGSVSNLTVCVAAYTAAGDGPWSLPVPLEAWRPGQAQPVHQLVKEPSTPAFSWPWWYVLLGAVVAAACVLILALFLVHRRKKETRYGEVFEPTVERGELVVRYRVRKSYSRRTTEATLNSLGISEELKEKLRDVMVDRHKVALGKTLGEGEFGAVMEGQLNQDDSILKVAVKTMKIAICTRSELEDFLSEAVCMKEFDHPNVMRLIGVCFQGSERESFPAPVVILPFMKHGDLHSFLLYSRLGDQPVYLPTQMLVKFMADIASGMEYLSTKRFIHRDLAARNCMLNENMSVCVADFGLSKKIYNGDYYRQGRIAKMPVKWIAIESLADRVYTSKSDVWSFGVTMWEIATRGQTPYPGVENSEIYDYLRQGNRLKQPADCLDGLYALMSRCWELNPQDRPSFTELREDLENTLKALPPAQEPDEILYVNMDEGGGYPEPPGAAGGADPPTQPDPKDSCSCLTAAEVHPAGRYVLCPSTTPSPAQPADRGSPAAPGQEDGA

[17] = target: T3, Bone morphogenetic protein receptor type-2 (Homo sapiens) (UniProt Q13873); experiment: Inhibition of BMPR2 (unknown origin) at 1 uM relative to control
T3 sequence (whole entry): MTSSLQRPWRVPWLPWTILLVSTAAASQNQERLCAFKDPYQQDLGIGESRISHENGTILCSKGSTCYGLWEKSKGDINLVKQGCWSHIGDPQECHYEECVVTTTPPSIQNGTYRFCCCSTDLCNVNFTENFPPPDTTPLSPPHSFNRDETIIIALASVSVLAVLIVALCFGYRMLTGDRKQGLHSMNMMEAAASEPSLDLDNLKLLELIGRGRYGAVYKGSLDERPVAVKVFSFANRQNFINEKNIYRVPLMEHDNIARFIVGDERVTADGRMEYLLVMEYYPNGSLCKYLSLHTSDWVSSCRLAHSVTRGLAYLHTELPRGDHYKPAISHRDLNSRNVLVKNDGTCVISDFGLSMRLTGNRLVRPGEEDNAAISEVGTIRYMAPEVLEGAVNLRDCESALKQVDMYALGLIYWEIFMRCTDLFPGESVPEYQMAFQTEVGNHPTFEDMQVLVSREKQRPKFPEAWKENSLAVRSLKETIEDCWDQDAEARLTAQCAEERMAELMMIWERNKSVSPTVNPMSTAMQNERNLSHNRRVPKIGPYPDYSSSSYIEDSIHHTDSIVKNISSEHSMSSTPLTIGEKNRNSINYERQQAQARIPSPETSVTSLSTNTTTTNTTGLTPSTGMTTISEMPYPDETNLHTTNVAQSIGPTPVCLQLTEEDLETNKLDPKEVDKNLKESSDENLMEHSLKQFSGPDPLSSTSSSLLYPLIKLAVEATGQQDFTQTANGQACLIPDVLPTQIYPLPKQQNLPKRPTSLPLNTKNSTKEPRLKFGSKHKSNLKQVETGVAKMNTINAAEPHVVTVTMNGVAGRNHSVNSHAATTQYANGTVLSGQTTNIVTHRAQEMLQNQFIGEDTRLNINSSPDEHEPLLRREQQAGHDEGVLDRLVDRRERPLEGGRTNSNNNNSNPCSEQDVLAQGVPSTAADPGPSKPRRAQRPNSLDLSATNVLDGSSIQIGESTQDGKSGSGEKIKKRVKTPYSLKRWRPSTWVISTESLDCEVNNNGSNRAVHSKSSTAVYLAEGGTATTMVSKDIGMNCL

Jurkat = experiment: Immunosuppressive activity in anti-CD3/CD28 stimulated human Jurkat cells assessed as reduction in LAT phosphorylation level at 100 to 400 nM incubated for 48 hrs by Western blotting analysis; assay type: functional, cell-based; conditions: dose 100-400 nM

Question: `C=CC(=O)Nc1cc(CNc2nc(Nc3ccc(N4CCOCC4)c(OC)c3)c(C(N)=O)c3nccn23)ccc1Cl` was tested. Which Activity (Splenocyte [1]) did it give?
Answer: The Activity was “Active”.

Question: What about the Activity (Splenocyte [2]) of the same compound?
Answer: The Activity was “Dose-Dependent Effect”.

Question: And the inhibition [3]?
Answer: The inhibition was > 90%.

Question: What about the inhibition [4] of the same compound?
Answer: The inhibition was > 90%.

Question: And the Activity (Mus musculus [5])?
Answer: Its Activity is “Active”.

Question: And the IC50 [6]?
Answer: Its IC50 is 1160 nM.

Question: And the Activity (Mus musculus [7])?
Answer: The Activity was “Active”.

Question: What about the Activity (Splenocyte [8]) of the same compound?
Answer: The Activity was “Dose-Dependent Effect”.

Question: And the inhibition [9]?
Answer: The inhibition was 72.5%.

Question: What about the Activity (Mus musculus [10]) of the same compound?
Answer: The Activity was “Active”.

Question: And the inhibition [11]?
Answer: The inhibition was > 90%.

Question: What about the IC50 (Splenocyte [12]) of the same compound?
Answer: Its IC50 is 64 nM.

Question: What about the inhibition [13] of the same compound?
Answer: The inhibition was 98.3%.

Question: And the Activity (Splenocyte [14])?
Answer: The Activity was 10.8%.

Question: And the Activity (Splenocyte [15])?
Answer: The Activity was “inactive”.

Question: And the inhibition [16]?
Answer: Its inhibition is > 90%.

Question: What about the inhibition [17] of the same compound?
Answer: The inhibition was > 90%.

Question: What about the Activity (Jurkat) of the same compound?
Answer: Its Activity is “Active”.
